Measured values taken from patent US10544130B2, “Metallo-beta-lactamase inhibitors” (priority 2015, dated 2020).

Test system: Pseudomonas aeruginosa PAO1 MB9798 (efflux+, IMP-1)
Conditions: ratio MITC95 PA 9798/MITC95 PA 9799; imipenem at 2 μg/mL
From the text: The strain background was Pseudomonas aeruginosa PAO1.
The strain set was then used as a pair to determine the effect of metallo-β-lactamase inhibitors of Formula I on the MIC of imipenem and/or ceftazidime. A fixed concentration of antibiotic was included in standard microbroth MIC tests, usually at the CLSI (Clinical and Laboratory Standards Institute) breakpoint concentration. A fixed amount of a class A/C beta-lactamase inhibitor was also included to inhibit the resident Pseudomonas AmpC enzyme. A serial titration of the metallo-β-lactamase inhibitor was included and the concentration of metallo-β-lactamase inhibitor which restores susceptibility of the strain to the included antibiotic was recorded. That concentration of metallo-β-lactamase inhibitor was then compared between the two strains to determine the fold difference between the efflux + (MB9798) and efflux − (MB9799) strains. This was taken as an indication of the extent to which the MBLi is subject to efflux.

`Nc1nc2c(-c3ccc(S(=O)(=O)NCC4(O)CCNCC4)c(S(N)(=O)=O)c3-c3nnn[nH]3)cccc2s1` [Example 86, 4-(2-aminobenzo[d]thiazol-4-yl)-N^1-((4-hydroxypiperidin-4-yl)methyl)-3-(1H-tetrazol-5-yl)benzene-1,2-disulfonamide] and `Nc1nc2c(-c3ccc(S(=O)(=O)NC[C@H]4CCNC4)c(S(N)(=O)=O)c3-c3nnn[nH]3)cccc2s1` [Example 73, 4-(2-amino-1,3-benzothiazol-4-yl)-N^1-[(3S)-pyrrolidin-3-ylmethyl]-3-(1H-tetrazol-5-yl)benzene-1,2-disulfonamide] are the same in Efflux ratio: 0.50 for the first, 0.50 for the second.

Going from `Cn1c(N)nc2c(-c3ccc(S(=O)(=O)N[C@H]4CCNC4)c(S(N)(=O)=O)c3-c3nn[nH]n3)cccc21` [Example 163, 4-(2-amino-1-methyl-1H-benzo[d]imidazol-4-yl)-N^1-((S)-pyrrolidin-3-yl)-3-(2H-tetrazol-5-yl)benzene-1,2-disulfonamide] to `Nc1nc2c(-c3ccc(S(=O)(=O)NC4CNC4)c(S(N)(=O)=O)c3-c3nn[nH]n3)cccc2s1` [Example 146, 4-(2-aminobenzo[d]thiazol-4-yl)-N1-(azetidin-3-yl)-3-(2H-tetrazol-5-yl)benzene-1,2-disulfonamide], the Efflux ratio falls from 1.00 to 0.50.

Going from `Nc1nc2c(-c3ccc(S(=O)(=O)NCCC(N)C(F)(F)F)c(S(N)(=O)=O)c3-c3nnn[nH]3)cccc2s1` (stereo not drawn) [Example 49, 4-(2-amino-1,3-benzothiazol-4-yl)-N1-(3-amino-4,4,4-trifluorobutyl)-3-(1H-tetrazol-5-yl)benzene-1,2-disulfonamide] to `NCC(F)(F)CNS(=O)(=O)c1ccc(-c2cccc3sc(N)nc23)c(-c2nnn[nH]2)c1S(N)(=O)=O` [Example 47, 4-(2-amino-1,3-benzothiazol-4-yl)-N1-(3-amino-2,2-difluoropropyl)-3-(1H-tetrazol-5-yl)benzene-1,2-disulfonamide], the Efflux ratio falls from 8.00 to 1.00.

First: NS(=O)(=O)c1c(S(=O)(=O)N[C@@H]2CCNC2)ccc(-c2cccc3nc(O)[nH]c23)c1-c1nnn[nH]1 [Example 130, (R)-4-(2-hydroxy-1H-benzo[d]imidazol-7-yl)-N1-(pyrrolidin-3-yl)-3-(1H-tetrazol-5-yl)benzene-1,2-disulfonamide]
Second: Nc1nc2c(-c3ccc(S(=O)(=O)N[C@H]4CCCNC4)c(S(N)(=O)=O)c3-c3nnn[nH]3)cccc2[nH]1 [Example 179, (S)-4-(2-amino-1H-benzo[d]imidazol-4-yl)-N^1-(piperidin-3-yl)-3-(1H-tetrazol-5-yl)benzene-1,2-disulfonamide]
The Efflux ratio of the first is lower: 0.50 for the first, 2.00 for the second.

Compared with `C[N+]1(C)CC[C@@H](NS(=O)(=O)c2ccc(-c3cccc4[nH]c(N)nc34)c(-c3nn[nH]n3)c2S(N)(=O)=O)C1.[Cl-]` [Example 233, (R)-3-((4-(2-amino-1H-benzo[d]imidazol-4-yl)-2-sulfamoyl-3-(2H-tetrazol-5-yl)phenyl)sulfonamido)-1,1-dimethylpyrrolidin-1-ium chloride], `Nc1nc2c(-c3ccc(S(=O)(=O)N[C@H]4CN[C@H](CO)C4)c(S(N)(=O)=O)c3-c3nnn[nH]3)cccc2[nH]1` [Example 172, 4-(2-amino-1H-benzo[d]imidazol-4-yl)-N^1-((3R,5S)-5-(hydroxymethyl)pyrrolidin-3-yl)-3-(1H-tetrazol-5-yl)benzene-1,2-disulfonamide] is lower in Efflux ratio: 1.00 for the first, 0.50 for the second.

First: CN(CCc1ccncc1)S(=O)(=O)c1ccc(-c2cccc3sc(N)nc23)c(-c2nnn[nH]2)c1S(N)(=O)=O.O=C(O)C(F)(F)F [Example 100, 4-(2-(4-(2-aminobenzo[d]thiazol-4-yl)-N-methyl-2-sulfamoyl-3-(1H-tetrazol-5-yl)phenylsulfonamido)ethyl)pyridin-1-ium 2,2,2-trifluoroacetate]
Second: CC1(CN)CN(S(=O)(=O)c2ccc(-c3cccc4sc(N)nc34)c(-c3nnn[nH]3)c2S(N)(=O)=O)C1.O=C(O)C(F)(F)F [Example 101, (1-((4-(2-aminobenzo[d]thiazol-4-yl)-2-sulfamoyl-3-(1H-tetrazol-5-yl)phenyl)sulfonyl)-3-methylazetidin-3-yl)methanaminium 2,2,2-trifluoroacetate]
The Efflux ratio of the first is higher: 32.00 for the first, 1.00 for the second.

Compared with `Nc1nc2c(-c3ccc(S(=O)(=O)NCC4CCNC4)c(S(N)(=O)=O)c3-c3nnn[nH]3)cccc2s1.O=CO` (stereo not drawn) [Example 120, 3-((4-(2-aminobenzo[d]thiazol-4-yl)-2-sulfamoyl-3-(1H-tetrazol-5-yl)phenylsulfonamido)methyl)pyrrolidin-1-ium formate], `CNC(=O)CNS(=O)(=O)c1ccc(-c2cccc3sc(N)nc23)c(-c2nnn[nH]2)c1S(N)(=O)=O` [Example 23, N^2-{[4-(2-amino-1,3-benzothiazol-4-yl)-2-sulfamoyl-3-(1H-tetrazol-5-yl)phenyl]sulfonyl}-N-methylglycinamide] is higher in Efflux ratio: 0.50 for the first, 1.00 for the second.

`Nc1nc(-c2cccc(-c3ccc(S(=O)(=O)N[C@@H]4CCNC4)c(S(N)(=O)=O)c3-c3nn[nH]n3)c2)n[nH]1` [Example 231, (R)-3′-(5-amino-1H-1,2,4-triazol-3-yl)-N4-(pyrrolidin-3-yl)-2-(2H-tetrazol-5-yl)-[1,1′-biphenyl]-3,4-disulfonamide] and `NS(=O)(=O)c1ccc(-c2cccc3[nH]c(C(=O)O)nc23)c(-c2nn[nH]n2)c1S(N)(=O)=O` [Example 8, 4-(3,4-disulfamoyl-2-(2H-tetrazol-5-yl)phenyl)-1H-benzo[d]imidazole-2-carboxylic acid] are the same in Efflux ratio: 1.00 for the first, 1.00 for the second.

Compared with `CN(C1CCS(=O)(=O)C1)S(=O)(=O)c1ccc(-c2cccc3sc(N)nc23)c(-c2nnn[nH]2)c1S(N)(=O)=O` (stereo not drawn) [Example 41, 4-(2-amino-1,3-benzothiazol-4-yl)-N^1-(1,1-dioxidotetrahydrothiophen-3-yl)-N~1~-methyl-3-(1H-tetrazol-5-yl)benzene-1,2-disulfonamide], `Nc1nc2c(-c3ccc(S(=O)(=O)N4CC[C@H](N)C4)c(S(N)(=O)=O)c3-c3nnn[nH]3)cccc2s1` [Example 61, 3-(2-amino-1,3-benzothiazol-4-yl)-6-{[(3S)-3-aminopyrrolidin-1-yl]sulfonyl}-2-(1H-tetrazol-5-yl)benzenesulfonamide] is lower in Efflux ratio: 8.00 for the first, 1.00 for the second.

`Nc1nc2c(-c3ccc(S(=O)(=O)NCC4COCCN4)c(S(N)(=O)=O)c3-c3nnn[nH]3)cccc2s1.O=C(O)C(F)(F)F` (stereo not drawn) [Example 96, 3-((4-(2-aminobenzo[d]thiazol-4-yl)-2-sulfamoyl-3-(1H-tetrazol-5-yl)phenylsulfonamido)methyl)morpholin-4-ium 2,2,2-trifluoroacetate] and `NC[C@H](CO)NS(=O)(=O)c1ccc(-c2cccc3sc(N)nc23)c(-c2nnn[nH]2)c1S(N)(=O)=O` [Example 202, (R)—N^1-(1-amino-3-hydroxypropan-2-yl)-4-(2-aminobenzo[d]thiazol-4-yl)-3-(1H-tetrazol-5-yl)benzene-1,2-disulfonamide] are the same in Efflux ratio: 1.00 for the first, 1.00 for the second.

Work on `NCc1nc2c(-c3ccc(S(=O)(=O)NC[C@@H](O)CN)c(S(N)(=O)=O)c3-c3nn[nH]n3)cccc2[nH]1` [Example 305, (S)—N1-(3-amino-2-hydroxypropyl)-4-(2-(aminomethyl)-1H-benzo[d]imidazole-4-yl)-3-(2H-tetrazol-5-yl)benzene-1,2-disulfonamide] yielded an Efflux ratio of 1.00.
